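Values below derive from 48-hour exposures of cells grown in 96-well plates, with endpoints linearly interpolated between the two concentrations bracketing the appropriate inhibition level. At the GI50, growth is halved.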 The source made the active and inactive calls. Cut-off read from the data, not from the text of the source: active = GI50 up to about 1.1 µM and inactive = higher. Some results are limits rather than exact numbers.

From ChEMBL document CHEMBL1201862, “PubChem BioAssay data set” (2004) come the findings set out here.

Test systems include CCRF-CEM; TK-10; RXF 393; SK-MEL-5; Hs-578T; SW-620; SF-295; U-251; NCI-H522; LOX IMVI; HOP-62; M14; NCI/ADR-RES; DU-145; SK-MEL-28; A549; OVCAR-5; NCI-H23; KM12; PC-3.
Holding throughout (test): NCI-60 cell line screen, 48 h

As to `O=C(Nc1cc2cc([N+](=O)[O-])ccc2oc1=O)c1cccs1`, the GI50 in the assay with CCRF-CEM was 11.3 µM (inactive); in the assay with TK-10 it was > 100 µM (inactive); with RXF 393 it was 4.86 µM (inactive); in the assay with SK-MEL-5, 16 µM (inactive); with Hs-578T, 30.8 µM (inactive); in the assay on SW-620, 49.9 µM (inactive). The GI50 in the assay on SF-295 is 54.2 µM (inactive); in the assay on U-251 it was 19.8 µM (inactive); in the assay on NCI-H522, 24.5 µM (inactive); in the assay on LOX IMVI, 20.3 µM (inactive); in the assay on HOP-62, 28.8 µM (inactive); in the assay on M14, 58.7 µM (inactive). The GI50 in the assay on NCI/ADR-RES was 62.2 µM (inactive); with DU-145 it was > 100 µM (inactive); in the assay on SK-MEL-28, 58.9 µM (inactive); in the assay on A549, 43.8 µM (inactive); in the assay on OVCAR-5, > 100 µM (inactive); in the assay on NCI-H23, > 10 µM (inactive). The GI50 in the assay on KM12 was 24.5 µM (inactive); in the assay with PC-3, 37.8 µM (inactive).

Turning to `O=C(O)c1cnccc1-c1cc(=O)[nH]n1-c1ccccc1`, the GI50 with CCRF-CEM is 34.4 µM (inactive); in the assay on TK-10, > 100 µM (inactive); in the assay on RXF 393, 98.6 µM (inactive); in the assay with SK-MEL-5, 52.4 µM (inactive); in the assay with Hs-578T, > 91.8 µM (inactive); with SW-620, > 23.2 µM (inactive). The GI50 was 21.6 µM (inactive) in the assay on SF-295; > 100 µM (inactive) in the assay with U-251; > 63.4 µM (inactive) in the assay on NCI-H522; 6.76 µM (inactive) with LOX IMVI; 51.1 µM (inactive) in the assay with HOP-62; 10.8 µM (inactive) in the assay on M14. Also, the GI50 was 27.6 µM (inactive) in the assay on NCI/ADR-RES; > 53.1 µM (inactive) with DU-145; > 43.4 µM (inactive) in the assay with SK-MEL-28; 48.9 µM (inactive) with A549; > 63.4 µM (inactive) in the assay on OVCAR-5; 97.7 µM (inactive) in the assay with NCI-H23. Also, the values for the GI50 in the assay with KM12 and in the assay on PC-3 were 9.75 µM (inactive) and 16.3 µM (inactive), respectively.

Turning to `CN(C)CCNc1ccc(C(=O)NCCCN(C)CCCNC(=O)c2ccc(NCCN(C)C)c3c(=O)c4ccccc4[nH]c23)c2[nH]c3ccccc3c(=O)c12`, the GI50 with CCRF-CEM is < 0.01 µM (active); in the assay on TK-10, 0.828 µM (active); in the assay with RXF 393, 0.0809 µM (active); in the assay on SK-MEL-5, 0.146 µM (active); in the assay with Hs-578T it was < 0.0347 µM (active); in the assay on SW-620, < 0.0113 µM (active). In addition, the GI50 in the assay with SF-295 is 0.0328 µM (active); with U-251, < 0.01 µM (active); with NCI-H522, < 0.01 µM (active); in the assay with LOX IMVI, < 0.01 µM (active); in the assay with HOP-62, < 0.0291 µM (active); in the assay on M14 it was 0.218 µM (active). Also, the GI50 with NCI/ADR-RES is 5.08 µM (inactive); with DU-145, < 0.0134 µM (active); with SK-MEL-28, 0.109 µM (active); with A549 it was < 0.01 µM (active); with OVCAR-5, 0.0458 µM (active); with NCI-H23 it was 0.0489 µM (active). Also, the GI50 in the assay with KM12 is 0.0333 µM (active); in the assay with PC-3 it was 0.0783 µM (active).

`CCOC(=O)C(Cc1ccc(OC(=O)OC(C)(C)C)cc1)NC(=O)OC(C)(C)C` (stereo not given): the GI50 with CCRF-CEM is 21.9 µM (inactive); in the assay with TK-10, 71.1 µM (inactive); with RXF 393, 53.2 µM (inactive); in the assay on SK-MEL-5 it was > 100 µM (inactive); in the assay with Hs-578T, 47.5 µM (inactive); in the assay with SW-620, 34.7 µM (inactive). The GI50 in the assay on SF-295 was > 100 µM (inactive); in the assay with U-251 it was 37.2 µM (inactive); in the assay on NCI-H522, > 100 µM (inactive); with LOX IMVI, 44.1 µM (inactive); in the assay with HOP-62, > 100 µM (inactive); with M14 it was 26.5 µM (inactive). Besides, the GI50 was 49.9 µM (inactive) with NCI/ADR-RES; 30.5 µM (inactive) in the assay with DU-145; > 100 µM (inactive) in the assay with SK-MEL-28; > 100 µM (inactive) with A549; > 100 µM (inactive) in the assay on OVCAR-5; > 100 µM (inactive) in the assay with NCI-H23. Besides, the GI50 was 70.6 µM (inactive) in the assay on KM12 and 34.5 µM (inactive) in the assay on PC-3.
